From ChEMBL document CHEMBL4507264, “Data for DCP probe BAY-7598” (2021)

Columns and labels:
[1] = biological target: 5-hydroxytryptamine receptor 2B (Homo sapiens) (UniProt P41595); conditions: Compound concentration 10.0 uM
[2] = biological target: Receptor-type tyrosine-protein kinase FLT3 (Homo sapiens) (UniProt P36888); conditions: Compound concentration 1000.0 nM
[3] = biological target: Ephrin type-A receptor 8 (Homo sapiens) (UniProt P29322); conditions: Compound concentration 1000.0 nM
Sequence of Ephrin type-A receptor 8 (Homo sapiens) (P29322 whole entry): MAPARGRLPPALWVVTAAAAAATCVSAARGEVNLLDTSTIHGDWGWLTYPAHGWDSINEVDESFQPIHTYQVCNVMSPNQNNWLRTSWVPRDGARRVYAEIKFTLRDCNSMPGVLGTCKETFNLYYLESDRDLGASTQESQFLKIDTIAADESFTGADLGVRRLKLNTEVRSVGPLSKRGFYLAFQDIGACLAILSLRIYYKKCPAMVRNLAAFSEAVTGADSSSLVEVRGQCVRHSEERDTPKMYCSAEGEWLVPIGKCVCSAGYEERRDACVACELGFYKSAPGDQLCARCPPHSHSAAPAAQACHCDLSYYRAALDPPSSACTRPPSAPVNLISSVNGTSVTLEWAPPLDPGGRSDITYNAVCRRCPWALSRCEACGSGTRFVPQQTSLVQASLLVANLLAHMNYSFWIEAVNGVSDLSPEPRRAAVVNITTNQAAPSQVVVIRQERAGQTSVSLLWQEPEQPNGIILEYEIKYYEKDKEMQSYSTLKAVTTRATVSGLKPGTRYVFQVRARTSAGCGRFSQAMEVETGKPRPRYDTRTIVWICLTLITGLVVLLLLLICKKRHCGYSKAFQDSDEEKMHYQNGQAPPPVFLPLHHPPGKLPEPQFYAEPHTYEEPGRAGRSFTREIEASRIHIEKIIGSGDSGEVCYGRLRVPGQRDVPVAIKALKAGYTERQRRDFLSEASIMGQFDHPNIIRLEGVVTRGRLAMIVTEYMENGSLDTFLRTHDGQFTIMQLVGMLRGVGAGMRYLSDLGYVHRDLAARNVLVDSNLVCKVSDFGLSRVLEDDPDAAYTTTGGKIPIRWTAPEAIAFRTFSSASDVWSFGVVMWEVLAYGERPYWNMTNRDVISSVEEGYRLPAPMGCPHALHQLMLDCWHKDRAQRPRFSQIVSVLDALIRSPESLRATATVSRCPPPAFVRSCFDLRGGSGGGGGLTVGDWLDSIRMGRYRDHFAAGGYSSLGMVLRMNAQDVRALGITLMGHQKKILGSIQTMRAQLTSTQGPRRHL

[4] = biological target: TRAF2 and NCK-interacting protein kinase (Homo sapiens) (UniProt Q9UKE5); conditions: Compound concentration 1000.0 nM
[5] = biological target: Serine/threonine-protein kinase tousled-like 2 (Homo sapiens) (UniProt Q86UE8); conditions: Compound concentration 1000.0 nM
[6] = biological target: Serine/threonine-protein kinase PAK 3 (Homo sapiens) (UniProt O75914); conditions: Compound concentration 1000.0 nM
Sequence of Serine/threonine-protein kinase PAK 3 (Homo sapiens) (O75914 whole entry, looked up): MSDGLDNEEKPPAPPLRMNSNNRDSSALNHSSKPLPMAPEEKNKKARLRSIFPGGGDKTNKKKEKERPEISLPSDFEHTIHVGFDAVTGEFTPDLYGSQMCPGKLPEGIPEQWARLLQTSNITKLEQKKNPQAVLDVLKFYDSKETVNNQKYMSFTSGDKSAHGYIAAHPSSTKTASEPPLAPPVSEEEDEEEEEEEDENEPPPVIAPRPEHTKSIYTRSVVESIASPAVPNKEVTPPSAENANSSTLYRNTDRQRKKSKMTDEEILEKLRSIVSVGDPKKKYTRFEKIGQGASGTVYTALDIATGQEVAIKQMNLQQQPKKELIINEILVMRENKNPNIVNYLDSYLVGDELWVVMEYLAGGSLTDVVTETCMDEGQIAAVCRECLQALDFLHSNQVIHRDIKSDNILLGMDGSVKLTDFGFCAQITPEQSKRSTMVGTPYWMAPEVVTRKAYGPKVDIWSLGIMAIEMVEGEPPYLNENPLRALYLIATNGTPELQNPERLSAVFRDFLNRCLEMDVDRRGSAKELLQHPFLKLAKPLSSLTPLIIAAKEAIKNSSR

[7] = biological target: Leucine-rich repeat serine/threonine-protein kinase 2 (Homo sapiens) (UniProt Q5S007); conditions: Compound concentration 1000.0 nM
[8] = biological target: Phosphatidylinositol 4-kinase beta (Homo sapiens) (UniProt Q9UBF8); conditions: Compound concentration 1000.0 nM
[9] = biological target: Tyrosine-protein kinase Fgr (Homo sapiens) (UniProt P09769); conditions: Compound concentration 1000.0 nM
[10] = biological target: Ephrin type-A receptor 3 (Homo sapiens) (UniProt P29320); conditions: Compound concentration 1000.0 nM
Sequence of Ephrin type-A receptor 3 (Homo sapiens) (P29320 whole entry): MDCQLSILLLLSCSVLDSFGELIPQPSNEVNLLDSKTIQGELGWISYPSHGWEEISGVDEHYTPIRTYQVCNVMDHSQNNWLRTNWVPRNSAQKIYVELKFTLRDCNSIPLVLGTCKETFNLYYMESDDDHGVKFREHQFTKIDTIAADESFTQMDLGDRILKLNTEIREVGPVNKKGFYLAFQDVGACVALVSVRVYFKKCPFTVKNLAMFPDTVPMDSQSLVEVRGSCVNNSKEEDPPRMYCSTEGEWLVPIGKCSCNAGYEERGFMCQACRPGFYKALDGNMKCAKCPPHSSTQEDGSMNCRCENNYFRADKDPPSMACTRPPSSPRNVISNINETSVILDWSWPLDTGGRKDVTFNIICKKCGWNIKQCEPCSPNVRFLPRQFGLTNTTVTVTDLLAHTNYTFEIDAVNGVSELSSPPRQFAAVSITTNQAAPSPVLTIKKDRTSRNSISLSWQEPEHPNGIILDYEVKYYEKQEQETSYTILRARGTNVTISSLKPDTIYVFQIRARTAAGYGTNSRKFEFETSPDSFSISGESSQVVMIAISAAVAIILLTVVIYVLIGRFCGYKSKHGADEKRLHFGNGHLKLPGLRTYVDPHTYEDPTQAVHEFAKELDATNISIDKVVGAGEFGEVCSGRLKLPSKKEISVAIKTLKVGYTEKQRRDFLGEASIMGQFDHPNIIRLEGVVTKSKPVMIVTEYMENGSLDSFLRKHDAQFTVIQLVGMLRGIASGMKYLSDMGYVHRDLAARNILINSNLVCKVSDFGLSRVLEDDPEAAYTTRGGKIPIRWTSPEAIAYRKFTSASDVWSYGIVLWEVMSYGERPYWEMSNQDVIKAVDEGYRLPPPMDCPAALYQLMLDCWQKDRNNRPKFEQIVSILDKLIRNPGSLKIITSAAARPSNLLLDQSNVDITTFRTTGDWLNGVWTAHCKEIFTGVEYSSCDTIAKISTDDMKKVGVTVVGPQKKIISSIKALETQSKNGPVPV

[11] = biological target: Megakaryocyte-associated tyrosine-protein kinase (Homo sapiens) (UniProt P42679); conditions: Compound concentration 1000.0 nM
[12] = biological target: Phosphatidylinositol 5-phosphate 4-kinase type-2 beta (Homo sapiens) (UniProt P78356); conditions: Compound concentration 1000.0 nM
[13] = biological target: Serine/threonine-protein kinase 3 (Homo sapiens) (UniProt Q13188); conditions: Compound concentration 1000.0 nM
[14] = system: Phosphatidylinositol 4,5-bisphosphate 3-kinase catalytic subunit alpha isoform (Homo sapiens), P42336 [E545K]; conditions: Compound concentration 1000.0 nM
[15] = biological target: Dual specificity mitogen-activated protein kinase kinase 2 (Homo sapiens) (UniProt P36507); conditions: Compound concentration 1000.0 nM
[16] = biological target: Phosphorylase b kinase regulatory subunit alpha, liver isoform (Homo sapiens) (UniProt P46019); conditions: Compound concentration 1000.0 nM
[17] = system: Tyrosine-protein kinase ABL1 (Homo sapiens), P00519 [E255K]; conditions: Compound concentration 1000.0 nM
[18] = biological target: Fibroblast growth factor receptor 2 (Homo sapiens) (UniProt P21802); conditions: Compound concentration 1000.0 nM
[19] = biological target: Serine/threonine-protein kinase OSR1 (Homo sapiens) (UniProt O95747); conditions: Compound concentration 1000.0 nM
[20] = biological target: Histamine H4 receptor (Homo sapiens) (UniProt Q9H3N8); conditions: Compound concentration 10.0 uM
[21] = biological target: Calcium/calmodulin-dependent protein kinase type IV (Homo sapiens) (UniProt Q16566); conditions: Compound concentration 1000.0 nM
Sequence of Calcium/calmodulin-dependent protein kinase type IV (Homo sapiens) (Q16566 whole entry): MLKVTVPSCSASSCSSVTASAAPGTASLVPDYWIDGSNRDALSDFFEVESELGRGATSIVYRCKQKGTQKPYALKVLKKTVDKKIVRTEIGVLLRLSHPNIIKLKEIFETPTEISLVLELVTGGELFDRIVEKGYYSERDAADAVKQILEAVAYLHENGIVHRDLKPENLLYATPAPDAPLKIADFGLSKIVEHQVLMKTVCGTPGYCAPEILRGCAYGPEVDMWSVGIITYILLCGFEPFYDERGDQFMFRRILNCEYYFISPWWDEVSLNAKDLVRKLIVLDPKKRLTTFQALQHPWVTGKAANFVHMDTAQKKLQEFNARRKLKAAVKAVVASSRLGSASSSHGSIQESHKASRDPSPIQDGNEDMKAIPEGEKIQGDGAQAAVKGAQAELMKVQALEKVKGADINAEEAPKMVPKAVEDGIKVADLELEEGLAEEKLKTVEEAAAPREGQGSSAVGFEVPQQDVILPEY

[22] = biological target: Activin receptor type-1 (Homo sapiens) (UniProt Q04771); conditions: Compound concentration 1000.0 nM
[23] = system: Phosphatidylinositol 4,5-bisphosphate 3-kinase catalytic subunit alpha isoform (Homo sapiens), P42336 [H1047L]; conditions: Compound concentration 1000.0 nM
[24] = system: Phosphatidylinositol 4,5-bisphosphate 3-kinase catalytic subunit alpha isoform (Homo sapiens), P42336 [E545A]; conditions: Compound concentration 1000.0 nM
Sequence of Phosphatidylinositol 4,5-bisphosphate 3-kinase catalytic subunit alpha isoform (Homo sapiens), P42336 [E545A] (P42336 whole entry E545A, canonical isoform): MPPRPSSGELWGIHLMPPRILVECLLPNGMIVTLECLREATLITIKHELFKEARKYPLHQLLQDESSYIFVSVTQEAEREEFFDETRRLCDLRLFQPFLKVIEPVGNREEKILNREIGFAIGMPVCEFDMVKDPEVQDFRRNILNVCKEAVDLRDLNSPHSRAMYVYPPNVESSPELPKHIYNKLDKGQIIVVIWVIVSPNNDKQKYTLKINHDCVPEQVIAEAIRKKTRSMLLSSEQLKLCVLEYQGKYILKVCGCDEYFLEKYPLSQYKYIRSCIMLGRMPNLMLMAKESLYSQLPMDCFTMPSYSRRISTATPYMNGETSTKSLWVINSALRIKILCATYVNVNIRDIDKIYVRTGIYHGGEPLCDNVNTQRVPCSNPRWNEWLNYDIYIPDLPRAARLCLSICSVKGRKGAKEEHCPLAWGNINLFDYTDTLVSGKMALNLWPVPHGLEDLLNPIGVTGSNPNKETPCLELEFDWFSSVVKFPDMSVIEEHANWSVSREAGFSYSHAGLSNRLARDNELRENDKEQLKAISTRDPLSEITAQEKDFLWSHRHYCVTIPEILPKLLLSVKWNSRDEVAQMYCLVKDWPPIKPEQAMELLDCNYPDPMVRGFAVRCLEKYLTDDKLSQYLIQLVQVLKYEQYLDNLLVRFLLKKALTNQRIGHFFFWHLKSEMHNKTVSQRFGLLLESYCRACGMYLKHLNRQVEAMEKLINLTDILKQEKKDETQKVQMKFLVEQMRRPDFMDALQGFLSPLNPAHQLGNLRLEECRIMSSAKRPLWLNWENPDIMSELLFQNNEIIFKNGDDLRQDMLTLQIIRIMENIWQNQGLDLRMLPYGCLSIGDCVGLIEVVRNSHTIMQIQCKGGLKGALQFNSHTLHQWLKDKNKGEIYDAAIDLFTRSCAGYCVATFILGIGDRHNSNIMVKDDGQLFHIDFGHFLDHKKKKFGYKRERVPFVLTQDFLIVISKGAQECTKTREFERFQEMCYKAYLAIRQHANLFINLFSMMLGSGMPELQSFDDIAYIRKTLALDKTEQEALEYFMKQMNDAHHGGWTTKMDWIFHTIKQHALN

[25] = biological target: Calcium/calmodulin-dependent protein kinase type 1D (Homo sapiens) (UniProt Q8IU85); conditions: Compound concentration 1000.0 nM
[26] = biological target: Mitogen-activated protein kinase kinase kinase 20 (Homo sapiens) (UniProt Q9NYL2); conditions: Compound concentration 1000.0 nM
[27] = biological target: T1, Muscarinic acetylcholine receptor M2 (Homo sapiens) (UniProt P08172); conditions: Compound concentration 10.0 uM
T1 sequence (whole entry): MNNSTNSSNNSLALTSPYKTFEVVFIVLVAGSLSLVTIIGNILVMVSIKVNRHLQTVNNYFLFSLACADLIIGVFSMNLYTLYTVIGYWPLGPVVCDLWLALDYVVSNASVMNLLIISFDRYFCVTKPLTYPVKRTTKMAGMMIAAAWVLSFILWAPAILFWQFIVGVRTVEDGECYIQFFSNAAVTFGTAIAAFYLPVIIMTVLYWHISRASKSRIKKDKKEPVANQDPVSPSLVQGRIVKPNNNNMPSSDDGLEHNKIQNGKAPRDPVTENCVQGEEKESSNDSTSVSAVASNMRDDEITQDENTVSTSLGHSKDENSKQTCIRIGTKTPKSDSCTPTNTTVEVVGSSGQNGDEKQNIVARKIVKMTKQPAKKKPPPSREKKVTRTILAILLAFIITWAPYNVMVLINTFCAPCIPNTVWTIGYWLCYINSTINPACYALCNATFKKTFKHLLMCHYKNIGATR

[28] = biological target: cGMP-dependent protein kinase 2 (Homo sapiens) (UniProt Q13237); conditions: Compound concentration 1000.0 nM
[29] = biological target: Cyclin-G-associated kinase (Homo sapiens) (UniProt O14976); conditions: Compound concentration 1000.0 nM
[30] = biological target: cAMP-dependent protein kinase catalytic subunit PRKX (Homo sapiens) (UniProt P51817); conditions: Compound concentration 1000.0 nM
[31] = biological target: Serine/threonine-protein kinase NLK (Homo sapiens) (UniProt Q9UBE8); conditions: Compound concentration 1000.0 nM
[32] = biological target: Phosphatidylinositol 5-phosphate 4-kinase type-2 gamma (Homo sapiens) (UniProt Q8TBX8); conditions: Compound concentration 1000.0 nM
[33] = biological target: Atypical kinase COQ8A, mitochondrial (Homo sapiens) (UniProt Q8NI60); conditions: Compound concentration 1000.0 nM
[34] = system: Epidermal growth factor receptor (Homo sapiens), P00533 [UNDEFINED MUTATION]; conditions: Compound concentration 1000.0 nM
[35] = system: Epidermal growth factor receptor (Homo sapiens), P00533 [T790M]; conditions: Compound concentration 1000.0 nM
[36] = biological target: Serine/threonine-protein kinase ICK (Homo sapiens) (UniProt Q9UPZ9); conditions: Compound concentration 1000.0 nM
[37] = biological target: Serine/threonine-protein kinase TBK1 (Homo sapiens) (UniProt Q9UHD2); conditions: Compound concentration 1000.0 nM
Sequence of Serine/threonine-protein kinase TBK1 (Homo sapiens) (Q9UHD2 whole entry): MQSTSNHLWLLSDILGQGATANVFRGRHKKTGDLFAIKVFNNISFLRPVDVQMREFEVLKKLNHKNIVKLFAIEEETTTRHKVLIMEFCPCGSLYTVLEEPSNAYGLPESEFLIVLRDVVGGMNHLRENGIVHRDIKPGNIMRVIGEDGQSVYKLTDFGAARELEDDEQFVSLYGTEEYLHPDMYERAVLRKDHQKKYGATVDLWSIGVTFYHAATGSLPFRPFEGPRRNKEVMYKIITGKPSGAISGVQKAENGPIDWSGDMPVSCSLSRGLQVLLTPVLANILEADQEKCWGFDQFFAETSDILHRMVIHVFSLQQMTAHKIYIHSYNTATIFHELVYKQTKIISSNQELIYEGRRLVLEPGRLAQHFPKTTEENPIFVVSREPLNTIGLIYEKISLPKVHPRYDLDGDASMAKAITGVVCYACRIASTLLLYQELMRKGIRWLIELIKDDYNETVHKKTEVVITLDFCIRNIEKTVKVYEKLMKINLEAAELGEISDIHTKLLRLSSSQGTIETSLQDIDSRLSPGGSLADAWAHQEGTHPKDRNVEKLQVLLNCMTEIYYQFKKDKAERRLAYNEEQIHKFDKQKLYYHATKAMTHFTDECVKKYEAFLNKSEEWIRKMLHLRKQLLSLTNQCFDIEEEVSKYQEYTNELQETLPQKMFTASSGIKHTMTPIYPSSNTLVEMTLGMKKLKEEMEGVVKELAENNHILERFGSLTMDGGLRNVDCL

[38] = biological target: Serine/threonine-protein kinase MRCK beta (Homo sapiens) (UniProt Q9Y5S2); conditions: Compound concentration 1000.0 nM

O=C(O)[C@@H]1[C@@H](Cn2nnc3ccccc3c2=O)CC[C@H]1C(=O)c1ccc(OCCC2CCOCC2)cc1 [BAY-694]
inactive: inhibition [1] 36.2% | residual activity [2] 86% | residual activity [3] 99% | residual activity [4] 93% | residual activity [5] 93% | residual activity [6] 99% | residual activity [7] 100% | residual activity [8] 83% | residual activity [9] 100% | residual activity [10] 100% | residual activity [11] 95% | residual activity [12] 81% | residual activity [13] 100% | residual activity [14] 80% | residual activity [15] 100% | residual activity [16] 100% | residual activity [17] 84% | residual activity [18] 100% | residual activity [19] 100% | inhibition [20] 3.39% | residual activity [21] 75% | residual activity [22] 100% | residual activity [23] 84% | residual activity [24] 100% | residual activity [25] 91% | residual activity [26] 91% | inhibition [27] -2.32% | residual activity [28] 100% | residual activity [29] 91% | residual activity [30] 100% | residual activity [31] 86% | residual activity [32] 89% | residual activity [33] 88% | residual activity [34] 87% | residual activity [35] 94% | residual activity [36] 97% | residual activity [37] 100% | residual activity [38] 96%

O=C(O)[C@H]1[C@H](Cn2nnc3ccccc3c2=O)CC[C@@H]1C(=O)c1ccc(OCCC2CCOCC2)cc1 [BAY-7598]
inactive: inhibition [1] 22.8% | residual activity [2] 96% | residual activity [3] 100% | residual activity [4] 84% | residual activity [5] 98% | residual activity [6] 86% | residual activity [7] 90% | residual activity [8] 93% | residual activity [9] 86% | residual activity [10] 88% | residual activity [11] 83% | residual activity [12] 84% | residual activity [13] 91% | residual activity [14] 72% | residual activity [15] 100% | residual activity [16] 100% | residual activity [17] 75% | residual activity [18] 100% | residual activity [19] 77% | inhibition [20] 1.99% | residual activity [21] 78% | residual activity [22] 100% | residual activity [23] 71% | residual activity [24] 100% | residual activity [25] 96% | residual activity [26] 100% | inhibition [27] 1.41% | residual activity [28] 100% | residual activity [29] 100% | residual activity [30] 93% | residual activity [31] 100% | residual activity [32] 100% | residual activity [33] 100% | residual activity [34] 76% | residual activity [35] 77% | residual activity [36] 98% | residual activity [37] 94% | residual activity [38] 100%
